The values that follow are results of earlier work, collected in patent US20160166510A1, “STABILIZED PROLONGED RELEASE PHARMACEUTICAL COMPOSITION COMPRISING ATYPICAL ANTIPSYCHOTIC” (INVENTIA HEALTHCARE PRIVATE LIMITED, priority 2010, published 2016).

Read-outs that look alike come from different tables or passages of the source.

For the molecule `Cc1nc2n(c(=O)c1CCN1CCC(c3noc4cc(F)ccc34)CC1)CCCC2O` (stereo not drawn) [Paliperidone], the Solubility entry is “sparingly soluble” (in 0.1 N HCl), “sparingly soluble” (in methylene chloride) and “practically insoluble” (in water).
